Common to all, as to experiment: NCI-60 cell line screen, 48 h
Experiment [1] has as its system SN12C renal.
The subject of experiment [2] is SNB-75 CNS.
In experiment [3] the test system is SK-OV-3 ovarian.
For experiment [4], the system named is HL-60(TB) leukemia.
Experiment [5] has as its system ACHN renal.
Experiment [6] relates to SK-MEL-2 melanoma.
In experiment [7] the test system is IGROV1 ovarian.
In experiment [8] the test system is TK-10 renal.

In PubChem BioAssay (NCI) one finds GI50 and TGI data, which are given here for 9 compounds.

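Five compound concentrations were applied to cells in 96-well plates for 48 hours; endpoints were derived by simple linear interpolation of the resulting dose-response curve. Abbreviation: GI50, concentration required for 50% inhibition of growth. TGI marks complete inhibition of growth.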

Turning to `O=C(Nc1ccc(I)cc1F)c1cc(Br)ccc1O`, the GI50 in experiment [1] is 0.416 µM; in experiment [2] it was 0.451 µM; in experiment [3], 0.681 µM; in experiment [4] it was 0.472 µM; in experiment [5] it was 0.592 µM; in experiment [6] it was 0.386 µM. The GI50 in experiment [7] was 0.412 µM; in experiment [8], 1.62 µM. The TGI in experiment [1] was determined as 4.09 µM; in experiment [2] it was 2.23 µM; in experiment [3], 2.92 µM; in experiment [4], 3.5 µM; in experiment [5], 11.4 µM; in experiment [6] it was 2.18 µM. The results for the TGI in experiment [7] and in experiment [8] were above 100 µM and 9.3 µM, respectively.

Take `COc1cc(CSc2nc3ccc(Cl)cc3c(=O)n2Cc2ccccc2)cc(OC)c1OC`: the GI50 was 5.2 µM in experiment [1]; 1.15 µM in experiment [2]; 3.23 µM in experiment [3]; 4.11 µM in experiment [4]; 4.23 µM in experiment [5]; 6.57 µM in experiment [6]. In addition, the GI50 in experiment [7] is 10.2 µM; in experiment [8], 10.3 µM. For the same compound, the TGI in experiment [1] is above 100 µM; in experiment [2], 4.09 µM; in experiment [3] it was 17.7 µM; in experiment [4], above 100 µM; in experiment [5] it was 34.2 µM; in experiment [6], 59.4 µM. Further, the TGI in experiment [7] is above 100 µM; in experiment [8] it was 51.8 µM.

`O=C1CN=C(c2ccc[nH]2)c2cc(Cl)ccc2N1`: the GI50 in experiment [1] was above 100 µM; in experiment [2], above 100 µM; in experiment [3], above 100 µM; in experiment [4], 4.16 µM; in experiment [5] it was above 100 µM; in experiment [6], above 100 µM. In addition, the GI50 in experiment [7] and in experiment [8] was above 100 µM each time. Also, the TGI in experiment [1], in experiment [2], in experiment [3], in experiment [4], in experiment [5] and in experiment [6] was above 100 µM each time. Further, the TGI in experiment [7] and in experiment [8] was above 100 µM throughout.

Regarding `COc1cccc(/C=N\NC(=O)c2ccncc2)c1O`, the GI50 was 8.41 µM in experiment [1]; 47.6 µM in experiment [2]; 6.45 µM in experiment [3]; 2.27 µM in experiment [4]; 2.96 µM in experiment [5]; 53.2 µM in experiment [6]. In addition, the values for the GI50 in experiment [7] and in experiment [8] were 6.98 µM and 4.78 µM, respectively. Further, the TGI is above 100 µM in experiment [1]; above 100 µM in experiment [2]; above 100 µM in experiment [3]; 8.73 µM in experiment [4]; above 100 µM in experiment [5]; above 100 µM in experiment [6]. Moreover, the TGI in experiment [7] and in experiment [8] was above 100 µM in each case.

On to `Cc1nnn(C)c1-c1cnc2c3ccc(C(C)(C)O)cc3n([C@H](c3ccccc3)C3CCOCC3)c2c1`, for which the GI50 was 1.4 µM in experiment [1]; below 0.01 µM in experiment [2]; below 0.01 µM in experiment [3]; below 0.01 µM in experiment [4]; 0.0243 µM in experiment [5]; 0.765 µM in experiment [6]. In addition, the GI50 is below 0.02 µM in experiment [7] and below 0.01 µM in experiment [8]. Moreover, the TGI in experiment [1] was above 74.9 µM; in experiment [2] it was 20.3 µM; in experiment [3], 16.4 µM; in experiment [4], 48.1 µM; in experiment [5], 14.9 µM; in experiment [6], 30.7 µM. Also, the TGI in experiment [7] was above 79.3 µM; in experiment [8], 11 µM.

On to `Cc1ccc(-c2cc(C(=O)Nc3ccc(S(=O)(=O)N4CCCCC4)cc3)[nH]n2)c(O)c1`, for which the GI50 in experiment [1], in experiment [2], in experiment [3], in experiment [4], in experiment [5] and in experiment [6] was above 100 µM throughout. The GI50 in experiment [7] and in experiment [8] was above 100 µM each time. The TGI in experiment [1], in experiment [2], in experiment [3], in experiment [4], in experiment [5] and in experiment [6] was above 100 µM throughout. Besides, the TGI in experiment [7] and in experiment [8] was above 100 µM each time.

Regarding `CCc1cc2c(c(OCC(F)(F)F)c(C(=O)NC3CCN(C(=O)CO)CC3)n2C)c(=O)n1CC(=O)c1ccccc1`, the GI50 in experiment [1] was above 100 µM; in experiment [2] it was above 33.9 µM; in experiment [3], above 100 µM; in experiment [4], 59.3 µM; in experiment [5], above 64.5 µM; in experiment [6], 56.1 µM. The GI50 is above 80.5 µM in experiment [7] and above 100 µM in experiment [8]. Also, the TGI in experiment [1], in experiment [2], in experiment [3], in experiment [4], in experiment [5] and in experiment [6] was above 100 µM each time. Moreover, the TGI in experiment [7] and in experiment [8] was above 100 µM each time.

`c1cc(OCCN2CCCC2)ccc1CNc1ccc2nc(CCC3CCCCC3)[nH]c2c1`: the GI50 in experiment [1] was 2.08 µM; in experiment [2], 1.27 µM; in experiment [3] it was 2.15 µM; in experiment [4], 1.79 µM; in experiment [5] it was 2.29 µM; in experiment [6], 1.84 µM. Besides, the figures for the GI50 in experiment [7] and in experiment [8] were 2.12 µM and 2.98 µM, respectively. Also, the TGI in experiment [1] was found to be 8.21 µM; in experiment [2] it was 3.31 µM; in experiment [3], 4.5 µM; in experiment [4] it was 3.72 µM; in experiment [5] it was 5.99 µM; in experiment [6], 3.55 µM. For the same compound, the TGI in experiment [7] stood at 6.43 µM; in experiment [8], 7.97 µM.

Regarding `COc1ccc(C(=O)/C=C/c2cc(-c3ccc(OC)c(OC)c3)n[nH]2)cc1OC`, the GI50 in experiment [1] is 1.92 µM; in experiment [2] it was 1.16 µM; in experiment [3], 3.13 µM; in experiment [4] it was 2.76 µM; in experiment [5], 1.59 µM; in experiment [6], 2.46 µM. For the same compound, the GI50 in experiment [7] is 3.13 µM; in experiment [8] it was 4.96 µM. For the same compound, the TGI in experiment [1] was 4.82 µM; in experiment [2], 2.96 µM; in experiment [3], 33.3 µM; in experiment [4], above 100 µM; in experiment [5] it was 3.83 µM; in experiment [6], 5.17 µM. Further, the TGI in experiment [7] came out at 53.8 µM; in experiment [8], 47.7 µM.
